Measured values published in paper PMC12999171 (eLife, 2026).

Assays:
iGABASnFR2n = iGABASnFR2n (Pseudomonas fluorescens, UniProt A0A1B3D787, F126L/F129H/N285A/S124A); test: biochemical; assay type: binding
Description: (§1) The fluorescence data was fitted to the Hill function in GraphPad Prism to determine affinity values.

iGABASnFR1 = iGABASnFR1 (Pseudomonas fluorescens, UniProt A0A1B3D787, F126L/N285A); test: biochemical; assay type: binding
Chain of iGABASnFR1 (A0A1B3D787 27-341, stated change not applied): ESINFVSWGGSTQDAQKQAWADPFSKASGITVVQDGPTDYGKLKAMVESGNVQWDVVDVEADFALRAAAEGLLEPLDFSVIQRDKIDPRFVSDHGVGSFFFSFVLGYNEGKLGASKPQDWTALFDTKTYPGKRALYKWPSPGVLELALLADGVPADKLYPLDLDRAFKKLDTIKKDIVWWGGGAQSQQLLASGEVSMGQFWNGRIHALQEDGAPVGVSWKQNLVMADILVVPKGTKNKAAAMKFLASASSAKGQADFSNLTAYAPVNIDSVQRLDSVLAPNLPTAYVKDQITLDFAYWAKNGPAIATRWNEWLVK
Chain of iGABASnFR1 (P42212 with tags, fused parts or gaps S30R/Y39N/F64L/F99S/N105T/Y145W partner): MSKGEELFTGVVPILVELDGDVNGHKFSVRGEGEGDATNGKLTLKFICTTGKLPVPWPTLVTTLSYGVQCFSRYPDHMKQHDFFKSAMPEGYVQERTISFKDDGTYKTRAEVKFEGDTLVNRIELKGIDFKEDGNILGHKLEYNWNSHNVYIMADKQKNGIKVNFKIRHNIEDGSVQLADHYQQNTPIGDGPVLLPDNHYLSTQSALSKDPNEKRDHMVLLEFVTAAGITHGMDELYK
Description: as §1

Chain of iGABASnFR2n (A0A1B3D787 27-341, stated change not applied): as the sequence (A0A1B3D787 27-341, stated change not applied) above
Chain of iGABASnFR2n (P42212 whole entry Y145W/R168P partner): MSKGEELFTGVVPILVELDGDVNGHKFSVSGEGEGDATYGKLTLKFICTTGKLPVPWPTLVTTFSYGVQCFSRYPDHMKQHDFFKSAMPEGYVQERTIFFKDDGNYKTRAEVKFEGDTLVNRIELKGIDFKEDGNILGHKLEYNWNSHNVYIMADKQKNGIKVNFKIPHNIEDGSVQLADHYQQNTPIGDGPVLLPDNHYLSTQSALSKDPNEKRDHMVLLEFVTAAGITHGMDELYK

## CN1CCc2cc3c(cc2[C@H]1[C@@H]1OC(=O)c2c1ccc1c2OCO1)OCO3 [bicuculline, reference compound]
iGABASnFR2n
  EC50: 9000 µM

## C=CC(N)CCC(=O)O (centres unmarked) [vigabatrin, reference compound]
iGABASnFR1
  EC50: 5430 µM

## N=C(N)NCCC[C@H](N)C(=O)O [arginine]
iGABASnFR2n
  EC50: 3.35 µM
iGABASnFR1
  EC50: 59 µM

## CC(C)[C@H](N)C(=O)O [valine]
iGABASnFR2n
  EC50: 1.47 µM
iGABASnFR1
  EC50: 1.34 µM

## NCCc1c[nH]cn1 [histamine]
iGABASnFR2n
  EC50: 9000 µM

## NCc1cc(=O)[nH]o1 [muscimol, reference compound]
iGABASnFR2n
  EC50: 2.62 µM
iGABASnFR1
  EC50: 5.81 µM

## NCCCC[C@H](N)C(=O)O [lysine]
iGABASnFR2n
  EC50: 741 µM
iGABASnFR1
  EC50: 77.5 µM

## NCC(CC(=O)O)c1ccc(Cl)cc1 (centres unmarked) [baclofen, reference compound]
iGABASnFR2n
  EC50: 6.3 µM
iGABASnFR1
  EC50: 7380 µM

## CSCC[C@H](N)C(=O)O [methionine]
iGABASnFR2n
  EC50: 9000 µM
iGABASnFR1
  EC50: 0.419 µM

## N[C@@H](Cc1ccccc1)C(=O)O [phenylalanine]
iGABASnFR2n
  EC50: 1150 µM
iGABASnFR1
  EC50: 3.71 µM

## N[C@@H](CO)C(=O)O [serine]
iGABASnFR2n
  EC50: 5520 µM
iGABASnFR1
  EC50: 50.9 µM

## NC(=O)C[C@H](N)C(=O)O [asparagine]
iGABASnFR2n
  EC50: 5500 µM
iGABASnFR1
  EC50: 8490 µM

## N[C@@H](CC(=O)O)C(=O)O [aspartate]
iGABASnFR2n
  EC50: 0.526 µM
iGABASnFR1
  EC50: 2.39 µM

## CC[C@H](C)[C@H](N)C(=O)O [isoleucine]
iGABASnFR2n
  EC50: 111 µM
iGABASnFR1
  EC50: 2.45 µM

## C[C@@H](O)[C@H](N)C(=O)O [threonine]
iGABASnFR2n
  EC50: 9000 µM
iGABASnFR1
  EC50: 19.9 µM

## Cc1ccsc1C(=CCCN1CCC[C@@H](C(=O)O)C1)c1sccc1C [tiagabine, reference compound]
iGABASnFR2n
  EC50: 2230 µM

## N[C@@H](Cc1c[nH]c2ccccc12)C(=O)O [tryptophan]
iGABASnFR2n
  EC50: 0.396 µM

## C[C@H](N)C(=O)O [alanine]
iGABASnFR2n
  EC50: 582 µM
iGABASnFR1
  EC50: 1710 µM

## O=C(O)[C@@H]1CCCN1 [proline]
iGABASnFR2n
  EC50: 2490 µM
